# Measurements: publication PMC8151276, “An Integrated Approach toward NanoBRET Tracers for Analysis of GPCR Ligand Engagement” (Molecules, 2021)
# Assays:
# Format in all cases: binding
# HRH2 = biological target: T1, HRH2 (Homo sapiens, UniProt P25021); assay: NanoBRET screen HiBiT-HRH2 in HEK293
# T1 construct: purchased Promega (in-house HiBiT-GPCR construct library, NanoBRET)
# Method: (§1) Each tracer candidate was screened across the entire library of HiBiT-GPCR constructs using NanoBRET as the detection modality. As depicted in Figure 4A, the specificity of interactions was evaluated through decrease in BRET due to competitive displacement of a bound tracer by excess parental compound. Each tracer was analyzed for binding to each HiBiT-GPCR fusion in the absence and in the presence of competing parental compound. Briefly, HEK293 cells were transfected with HiBiT-GPCR constructs diluted into promoterless DNA to reduce expression and maximize translocation to the cell surface. Each tracer candidate was then screened at concentrations of 1 μM and 0.1 μM across cells expressing these fusions. Cells were treated for 1.5 h with tracer either alone or in the presence of 20 μM competing parental compound (i.e., control). BRET was measured upon addition of purified LgBiT and subsequent complementation with HiBiT genetically fused to a GPCR. The specificity of interactions was assessed through a decrease in BRET signal due to competitive displacement of the bound tracer. To further gauge the robustness of these interactions, the fold response over the control (i.e., BRETtracer/BRETcontrol) was calculated. We chose a 1.5-fold response, which translates to ≥7-fold signal over noise as the minimal threshold required to score an interaction as positive. […]. Below we highlight the screening results obtained for our exemplary fluorescent tracers based on Clozapine, Amitriptyline and AZD1283.
# (§2) HiBiT-GPCR DNA constructs were diluted in 10 mM Tris pH 8 to a final concentration of 0.01 μg/μL, arrayed in 96-well plates and stored at −20 °C. For transfection, HEK293 cells were suspended in Opti-MEM (without phenol red) supplemented with 2% fetal bovine serum (Seradigm) and 100 units/mL penicillin–streptomycin (Gibco) at a final concentration of 220,000 cells/mL and dispensed into white 96-well plates at 90 μL/well. Subsequent transfections and screens were carried using an Agilent Bravo Automated Liquid Handling Platform. First, the 96-well HiBiT DNA arrays were diluted 25-fold in Opti-MEM (without serum or phenol red) to a final concentration of 0.0004 μg/μL and 20 μL of the diluted DNAs were transferred into new 96-well plates. Next, promoterless carrier DNA (1 μg/μL) was diluted 25-fold (0.04 μg/μL) and then dispensed into the diluted arrays at 20 μL/well. Following brief mixing, Viafect transfection reagent (Promega) diluted 16-fold into Opti-MEM was dispensed into the plates at 40 μL/well. After mixing by pipetting, plates were incubated for 10 min on the pipetting station deck. The DNA-transfection reagent complexes were then added to plates containing cells. To facilitate the screen, 10 μL of DNA-transfection reagent complexes were added in duplicates to the top 4 and bottom 4 rows, resulting in two identical 48-well arrays per plate. Plates with transfected cells were incubated for 18–20 h at 37 °C/5% CO2. A screen of each tracer across the entire library using two different concentrations requires duplicate plates of transfected cells. Depending on the number of tracers being screened, transfections can be scaled up using the same ratios. The next day, for each tracer, four 20× screening solutions in tracer dilution buffer (Promega) were prepared: two duplicates at final concentration of 20 μM and two duplicates at a final concentration of 2 μM. A competing unmodified compound was added to one of each duplicate at a final concentration of 400 μM. The four resulting solutions were diluted 4-fold in Opti-MEM without serum or phenol red to generate 5× solutions (5 µM and 0.5 µM tracer +/− 100 μM competing compound). To screen the library, a BioTek MultiFlo FX liquid dispenser was used to dispense 22.5 µL of tracer solution to the top 4 rows and 22.5 µL tracer + competing compound solution to the 4 bottom rows. Plates were briefly mixed on an orbital shaker and incubated for 1.5 h at room temperature. […]
# OXER1 = biological target: T2, OXER1 (Homo sapiens, UniProt Q8TDS5); assay: NanoBRET screen HiBiT-OXER1 in HEK293
# T2 construct: purchased Promega (in-house HiBiT-GPCR construct library, NanoBRET)
# T2 sequence (Q8TDS5 whole entry): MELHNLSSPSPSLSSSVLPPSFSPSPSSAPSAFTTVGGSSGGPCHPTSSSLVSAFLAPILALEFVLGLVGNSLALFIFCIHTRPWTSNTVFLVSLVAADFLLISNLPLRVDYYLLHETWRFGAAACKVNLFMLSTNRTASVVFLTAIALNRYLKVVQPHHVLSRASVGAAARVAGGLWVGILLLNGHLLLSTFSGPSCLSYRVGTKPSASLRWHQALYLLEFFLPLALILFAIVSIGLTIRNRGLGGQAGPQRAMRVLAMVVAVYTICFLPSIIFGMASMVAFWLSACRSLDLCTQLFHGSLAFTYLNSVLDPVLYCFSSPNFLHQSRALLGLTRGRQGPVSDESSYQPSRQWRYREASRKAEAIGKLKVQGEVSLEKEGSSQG
# Method: as §1, §2
# GHSR = biological target: T3, GHSR (Homo sapiens, UniProt Q92847); assay: NanoBRET screen HiBiT-GHSR in HEK293
# T3 construct: purchased Promega (in-house HiBiT-GPCR construct library, NanoBRET)
# T3 sequence (Q92847 whole entry): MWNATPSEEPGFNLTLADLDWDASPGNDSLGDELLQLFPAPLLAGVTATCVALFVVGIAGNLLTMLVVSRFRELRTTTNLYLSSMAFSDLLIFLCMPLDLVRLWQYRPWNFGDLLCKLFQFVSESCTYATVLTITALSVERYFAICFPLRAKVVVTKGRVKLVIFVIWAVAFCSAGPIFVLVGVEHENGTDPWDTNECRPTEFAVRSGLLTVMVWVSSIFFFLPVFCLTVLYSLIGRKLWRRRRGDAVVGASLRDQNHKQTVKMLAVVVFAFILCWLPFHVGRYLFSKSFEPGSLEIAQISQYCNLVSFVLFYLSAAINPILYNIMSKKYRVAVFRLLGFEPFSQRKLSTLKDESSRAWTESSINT
# Method: as §1, §2
# CCKAR = biological target: T4, CCKAR (Homo sapiens, UniProt P32238); assay: NanoBRET screen HiBiT-CCKAR in HEK293
# T4 construct: purchased Promega (in-house HiBiT-GPCR construct library, NanoBRET)
# T4 sequence (P32238 1-428): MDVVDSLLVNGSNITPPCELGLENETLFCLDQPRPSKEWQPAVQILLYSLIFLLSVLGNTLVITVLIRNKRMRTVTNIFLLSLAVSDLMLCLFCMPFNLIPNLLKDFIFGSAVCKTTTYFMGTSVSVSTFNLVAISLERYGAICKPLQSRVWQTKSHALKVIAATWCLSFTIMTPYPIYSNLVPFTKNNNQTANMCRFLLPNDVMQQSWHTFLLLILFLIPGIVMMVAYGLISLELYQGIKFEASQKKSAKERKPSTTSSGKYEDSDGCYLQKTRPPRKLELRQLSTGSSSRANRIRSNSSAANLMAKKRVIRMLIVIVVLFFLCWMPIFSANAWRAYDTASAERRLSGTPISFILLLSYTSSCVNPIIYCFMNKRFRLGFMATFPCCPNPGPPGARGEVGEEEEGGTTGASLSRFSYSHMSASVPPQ
# Method: as §1, §2
# C5AR1 = biological target: T5, C5AR1 (Homo sapiens, UniProt P21730); assay: NanoBRET screen HiBiT-C5AR1 in HEK293
# T5 construct: purchased Promega (in-house HiBiT-GPCR construct library, NanoBRET)
# T5 sequence (P21730 1-350): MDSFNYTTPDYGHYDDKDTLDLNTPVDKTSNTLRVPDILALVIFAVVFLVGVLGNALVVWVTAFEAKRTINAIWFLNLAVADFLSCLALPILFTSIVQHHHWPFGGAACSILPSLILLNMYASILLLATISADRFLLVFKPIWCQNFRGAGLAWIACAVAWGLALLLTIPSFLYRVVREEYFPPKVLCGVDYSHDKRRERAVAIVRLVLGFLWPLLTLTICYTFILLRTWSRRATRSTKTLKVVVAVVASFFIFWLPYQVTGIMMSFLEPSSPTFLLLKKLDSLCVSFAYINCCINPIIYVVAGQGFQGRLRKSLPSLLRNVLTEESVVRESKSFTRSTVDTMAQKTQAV
# Method: as §1, §2
# [1] = tracer at 0.1μM, listed as amitriptyline-b-2-NB590
# [2] = tracer at 1μM, listed as amitriptyline-b-2-NB590
# T1 sequence (P25021 whole entry): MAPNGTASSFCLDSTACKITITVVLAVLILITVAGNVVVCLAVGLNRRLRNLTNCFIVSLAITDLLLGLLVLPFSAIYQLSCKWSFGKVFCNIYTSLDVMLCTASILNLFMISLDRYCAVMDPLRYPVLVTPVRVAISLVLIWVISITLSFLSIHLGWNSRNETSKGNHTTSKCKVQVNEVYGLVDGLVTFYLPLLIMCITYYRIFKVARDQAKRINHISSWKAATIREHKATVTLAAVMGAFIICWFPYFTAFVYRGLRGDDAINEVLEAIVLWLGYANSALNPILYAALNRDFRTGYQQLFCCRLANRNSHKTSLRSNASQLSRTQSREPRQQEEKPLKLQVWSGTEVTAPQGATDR
compound,measurement,setting,value
CCOC(=O)c1cc(C#N)c(N2CCC(C(=O)NS(=O)(=O)Cc3ccccc3/C=C/C(=O)NCCNC(=O)CCc3ccc4n3[B-](F)(F)[N+]3=C(c5ccc[nH]5)C=CC3=C4)CC2)nc1C [AZD1283-1-NB590],NanoBRET Fold Response,"HRH2; HRH2, 0.1μM",0.90
same,NanoBRET Fold Response,"HRH2; HRH2, 1μM",1.03
same,NanoBRET Fold Response,"OXER1; OXER1, 0.1μM",0.50
same,NanoBRET Fold Response,"OXER1; OXER1, 1μM",1.03
same,NanoBRET Fold Response,"GHSR; GHSR, 0.1μM",1.01
same,NanoBRET Fold Response,"GHSR; GHSR, 1μM",1.04
same,NanoBRET Fold Response,"CCKAR; CCKAR, 0.1μM",1.08
same,NanoBRET Fold Response,"CCKAR; CCKAR, 1μM",1.11
same,NanoBRET Fold Response,"C5AR1; C5AR1, 0.1μM",1.07
same,NanoBRET Fold Response,"C5AR1; C5AR1, 1μM",1.07
N#CN=C(NCCCOc1cccc(CN2CCCCC2)c1)NCCNC(=O)CCOCCOCCOCCOCCNC(=O)CCc1ccc2n1[B-](F)(F)[N+]1=C(c3ccc[nH]3)C=CC1=C2 [Aminopotentidine-2-NB590],NanoBRET Fold Response,"HRH2; HRH2, tracer 0.1μM",5.51
same,NanoBRET Fold Response,"HRH2; HRH2, tracer 1μM",3.65
same,NanoBRET Fold Response,"OXER1; OXER1, tracer 0.1μM",1.10
same,NanoBRET Fold Response,"OXER1; OXER1, tracer 1μM",1.01
same,NanoBRET Fold Response,"GHSR; GHSR, tracer 0.1μM",0.98
same,NanoBRET Fold Response,"GHSR; GHSR, tracer 1μM",1.07
same,NanoBRET Fold Response,"CCKAR; CCKAR, tracer 0.1μM",0.98
same,NanoBRET Fold Response,"CCKAR; CCKAR, tracer 1μM",1.04
same,NanoBRET Fold Response,"C5AR1; C5AR1, tracer 0.1μM",0.99
same,NanoBRET Fold Response,"C5AR1; C5AR1, tracer 1μM",0.98
CN(C)CCC=C1c2ccccc2CCc2ccc(C(=O)NCCNC(=O)CCOCCOCCOCCOCCNC(=O)CCc3ccc4n3[B-](F)(F)[N+]3=C(c5ccc[nH]5)C=CC3=C4)cc21 [Amitriptyline-a-2-NB590],NanoBRET Fold Response,HRH2; tracer at 0.1μM,1.00
same,NanoBRET Fold Response,HRH2; tracer at 1μM,0.99
same,NanoBRET Fold Response,GHSR; tracer at 0.1μM,0.97
same,NanoBRET Fold Response,GHSR; tracer at 1μM,1.04
same,NanoBRET Fold Response,CCKAR; tracer at 0.1μM,1.03
same,NanoBRET Fold Response,CCKAR; tracer at 1μM,1.00
same,NanoBRET Fold Response,C5AR1; tracer at 0.1μM,1.03
same,NanoBRET Fold Response,C5AR1; tracer at 1μM,1.01
CN(C)CCC=C1c2ccccc2CCc2ccc(C(=O)NCCNC(=O)CCOCCOCCOCCOCCNC(=O)CCc3ccc4n3[B-](F)(F)[N+]3=C(c5ccc[nH]5)C=CC3=C4)cc21 [Amitriptyline-b-2-NB590],NanoBRET Fold Response,HRH2; [1],0.85
same,NanoBRET Fold Response,HRH2; [2],1.05
same,NanoBRET Fold Response,OXER1; tracer at 0.1μM,1.08
same,NanoBRET Fold Response,OXER1; tracer at 1μM,0.97
same,NanoBRET Fold Response,GHSR; [1],1.07
same,NanoBRET Fold Response,GHSR; [2],0.97
same,NanoBRET Fold Response,CCKAR; [1],1.11
same,NanoBRET Fold Response,CCKAR; [2],0.98
same,NanoBRET Fold Response,C5AR1; [1],1.01
same,NanoBRET Fold Response,C5AR1; tracer at 1μM,0.97
CN(CCC=C1c2ccccc2CCc2ccccc21)C(=O)CCOCCOCCOCCOCCNC(=O)CCc1ccc2n1[B-](F)(F)[N+]1=C(c3ccc[nH]3)C=CC1=C2 [Amitriptyline-e-2-NB590],NanoBRET Fold Response,HRH2; tracer at 1μM,0.95
same,NanoBRET Fold Response,CCKAR; tracer at 1μM,1.00
same,NanoBRET Fold Response,C5AR1; tracer at 1μM,1.02
